# Where “and” joins values, the source holds several entries; their conditions need not be identical. Identical values can stand only once. Toxic doses and inconclusive results are not listed.
# Tested on: CD2F1 mice, L1210 leukemia ip, survival T/C
# Assay: NCI In Vivo Anticancer Drug Screen. Data for tumor model L1210 Leukemia (intraperitoneal) in CD2F1 (CDF1) mice
# Details: endpoint: mean survival time, higher = longer survival
# Procedure, shortened: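 Antitumor effect is scored in animals hosting a serially transplanted tumor. Values compare compound-dosed animals against vehicle-only controls as a simple quotient.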
# [1] = dose: 100.0 mg/kg/injection, schedule: Q01DX009 (ip), vehicle: saline with Tween-80
# [2] = dose: 200.0 mg/kg/injection, schedule: Q01DX009 (ip), vehicle: saline with Tween-80
# [3] = dose: 400.0 mg/kg/injection, schedule: Q01DX009 (ip), vehicle: saline with Tween-80
smiles,measurement,setting,value
BrC1(Br)C2CC/C=C/CCCCC21 (centres undefined),T/C,"dose: 100.0 mg/kg/injection, schedule: Q04DX003 (ip), vehicle: saline sonified",97 % of control
same,T/C,"dose: 200.0 mg/kg/injection, schedule: Q04DX003 (ip), vehicle: saline sonified",94 % of control
same,T/C,"dose: 400.0 mg/kg/injection, schedule: Q04DX003 (ip), vehicle: saline sonified",97 % of control
CNC(C)c1ccc(C)cc1 (centres undefined),T/C,"dose: 6.25 mg/kg/injection, schedule: Q04DX003 (ip), vehicle: saline with Tween-80",98 % of control
same,T/C,"dose: 12.5 mg/kg/injection, schedule: Q04DX003 (ip), vehicle: saline with Tween-80",108 % of control
same,T/C,"dose: 25.0 mg/kg/injection, schedule: Q04DX003 (ip), vehicle: saline with Tween-80",101 % of control
CN(C)C(=S)NCc1ccccc1,T/C,"dose: 100.0 mg/kg/injection, schedule: Q04DX003 (ip), vehicle: saline with Tween-80",105 % of control
same,T/C,"dose: 200.0 mg/kg/injection, schedule: Q04DX003 (ip), vehicle: saline with Tween-80",109 % of control
same,T/C,"dose: 400.0 mg/kg/injection, schedule: Q04DX003 (ip), vehicle: saline with Tween-80",87 % of control
O=C(NC1CCCCC1)OCc1c(COC(=O)NC2CCCCC2)c(-c2ccc(Cl)c(Cl)c2)n2c1CCC2,T/C,"dose: 12.5 mg/kg/injection, schedule: Q01DX009 (ip), vehicle: saline with Tween-80",119 % of control and 112 % of control
same,T/C,"dose: 25.0 mg/kg/injection, schedule: Q01DX009 (ip), vehicle: saline with Tween-80",112 % of control
same,T/C,[1],122 % of control
same,T/C,[2],151 % of control and 157 % of control
same,T/C,[3],121 % of control and 97 % of control
O=C(N/N=C/c1ccccc1O)c1ccccc1O,T/C,[1],93 % of control
same,T/C,[2],95 % of control
same,T/C,[3],93 % of control
CCN(CC)CCCC(C)Nc1cc(C)nc(Nc2nc3cc(Cl)c(Cl)cc3[nH]2)n1 (centres undefined),T/C,"dose: 5.0 mg/kg/injection, schedule: Q04DX003 (ip), vehicle: saline with Tween-80",101 % of control
same,T/C,"dose: 10.0 mg/kg/injection, schedule: Q04DX003 (ip), vehicle: saline with Tween-80",94 % of control
same,T/C,"dose: 20.0 mg/kg/injection, schedule: Q04DX003 (ip), vehicle: saline with Tween-80",91 % of control
CCC(CC)(C(N)=O)C(N)=O,T/C,"dose: 100.0 mg/kg/injection, schedule: Q04DX002 (ip), vehicle: saline with Tween-80",108 % of control
same,T/C,"dose: 200.0 mg/kg/injection, schedule: Q04DX002 (ip), vehicle: saline with Tween-80",100 % of control
same,T/C,"dose: 400.0 mg/kg/injection, schedule: Q04DX002 (ip), vehicle: saline with Tween-80",100 % of control
OCC1OC(n2cnc3c2[nH]c(=S)n2ccnc32)C(O)C1O (centres undefined),T/C,"dose: 12.5 mg/kg/injection, schedule: Q01DX005 (ip), vehicle: water",96 % of control
same,T/C,"dose: 25.0 mg/kg/injection, schedule: Q01DX005 (ip), vehicle: water",101 % of control
same,T/C,"dose: 50.0 mg/kg/injection, schedule: Q01DX005 (ip), vehicle: water",96 % of control
same,T/C,"dose: 100.0 mg/kg/injection, schedule: Q01DX005 (ip), vehicle: water",101 % of control
same,T/C,"dose: 200.0 mg/kg/injection, schedule: Q01DX005 (ip), vehicle: water",101 % of control
C=C1CC2(CCC23COC(=O)C3=C)OC1=O (centres undefined),T/C,"dose: 0.78 mg/kg/injection, schedule: Q01DX009 (ip), vehicle: other",107 % of control
same,T/C,"dose: 0.78 mg/kg/injection, schedule: Q04DX002 (ip), vehicle: other",100 % of control
same,T/C,"dose: 0.78 mg/kg/injection, schedule: Q04DX003 (ip), vehicle: other",100 % of control
same,T/C,"dose: 1.56 mg/kg/injection, schedule: Q01DX009 (ip), vehicle: other",102 % of control
same,T/C,"dose: 1.56 mg/kg/injection, schedule: Q04DX002 (ip), vehicle: other",105 % of control
same,T/C,"dose: 1.56 mg/kg/injection, schedule: Q04DX003 (ip), vehicle: other",108 % of control
same,T/C,"dose: 3.12 mg/kg/injection, schedule: Q01DX009 (ip), vehicle: other",95 % of control
same,T/C,"dose: 3.12 mg/kg/injection, schedule: Q04DX002 (ip), vehicle: other",105 % of control
same,T/C,"dose: 3.12 mg/kg/injection, schedule: Q04DX003 (ip), vehicle: other",102 % of control
same,T/C,"dose: 6.25 mg/kg/injection, schedule: Q01DX009 (ip), vehicle: other",107 % of control
same,T/C,"dose: 6.25 mg/kg/injection, schedule: Q04DX002 (ip), vehicle: other",109 % of control
same,T/C,"dose: 6.25 mg/kg/injection, schedule: Q04DX003 (ip), vehicle: other",105 % of control
same,T/C,"dose: 12.5 mg/kg/injection, schedule: Q01DX001 (ip), vehicle: other",107 % of control
CCCCOC(=O)c1cnc[nH]c1=O,T/C,"dose: 100.0 mg/kg/injection, schedule: Q01DX001 (ip), vehicle: saline with Tween-80",95 % of control
same,T/C,"dose: 200.0 mg/kg/injection, schedule: Q01DX001 (ip), vehicle: saline with Tween-80",93 % of control
same,T/C,"dose: 400.0 mg/kg/injection, schedule: Q01DX001 (ip), vehicle: saline with Tween-80",96 % of control
